Results taken from BindingDB's records for doi:10.1016/j.bmcl.2005.03.049 (Abbott Laboratories, 2005).
pIC50: −log10 of the molar value.

Biological target: Protein farnesyltransferase subunit beta/geranylgeranyltransferase type-1 subunit alpha (Bos taurus, UniProt P29702+P49355)
Test: FTase Activity Assay
Conditions: pH 7.5; 37 °C
Experimental: The in vitro activity of compounds inhibiting FTase was determined by measuring the transfer of [3H]-FPP to substrate Ha-Ras-CVLS. The incorporated radioactivity was quantified by scintillation counting.

Row | pIC50 | Structure (SMILES)
1 | 6.70 | Cn1cncc1C(O)(c1ccc(Cl)cc1)c1ccc2ccn(-c3cccc4ccccc34)c2c1 (configuration not stated) [(4-chlorophenyl)(1-methyl-1H-imidazol-5-yl)[1-(naphthalen-1-yl)-1H-indol-6-yl]methanol]
2 | 7.44 | Cn1cncc1C(O)(c1ccc(Cl)cc1)c1ccc2ccn(-c3cccc(Cl)c3)c2c1 (configuration not stated) [(4-chlorophenyl)[1-(3-chlorophenyl)-1H-indol-6-yl](1-methyl-1H-imidazol-5-yl)methanol]
